The assay deals with Plasmodium berghei. Description: Luciferase/luciferin-expressing antifolate-resistant parasites were used to infect a culture of HepG2 cells that were pre-incubated with compounds. Infected hepatocytes emit light due to the luciferase reaction. Assay results are presented as the percent inhibition of light emission compared to control. […]. In kind it is functional. Conditions: sporozoite; for IC90: read-out: LUCIFERASE INFECTION ASSAY - IC90.

Setting [1] is: read-out: LUCIFERASE INFECTION ASSAY - IC50.

Molecules are shown by their SMILES. A value given as a limit tells only on which side of the number the result lay.

As to `Cc1cc(C)c(C#N)c(SCC(=O)N(C)Cc2cnn(-c3ccccc3)c2)n1`, the IC90 was more than 10 µM. The IC50 (PBLUC_HILL_SLOPE 0.688, PBLUC_R_SQUARED 0.271, read-out: LUCIFERASE INFECTION ASSAY - IC50) was found to be 4.09 µM.

Regarding `Cc1ccc(-c2csc3ncn(CC(=O)c4cc(C)n(C5CCS(=O)(=O)C5)c4C)c(=O)c23)cc1` (stereo not drawn), the IC90 was more than 10 µM. In addition, under setting [1], the IC50 is more than 10 µM.

In the case of `O=C(Nc1ccc(Oc2ccccc2)cc1)c1csc(C(O)c2ccccc2)n1` (stereo not drawn), the IC90 came to 7.41 µM. For the same compound, under setting [1], the IC50 came out at 1.63 µM.

Turning to `O=C(COC(=O)c1ccccc1Nc1cccc(C(F)(F)F)c1)c1ccc(C2CCCCC2)cc1`, the 90% effect concentration (IC90) is more than 10 µM. The IC50 under setting [1] is more than 10 µM.

As for `COc1cc2c(C#N)c(N3CCc4ccccc4C3)nc(N)c2c(N)n1`, the IC90 was more than 10 µM. Moreover, the half-maximal inhibitory concentration (IC50) under setting [1] was more than 10 µM.

As for `CCOC(=O)c1c(-c2ccc(C)cc2C)csc1NC(=O)COC(=O)c1cc(OC)c(OC)cc1[N+](=O)[O-]`, the 90% effect concentration (IC90) came out at 9.51 µM. Moreover, the IC50 (FFLUC_HILL_SLOPE 2.01, FFLUC_R_SQUARED 0.464, HEPG2TOX_HILL_SLOPE 2.45, HEPG2TOX_R_SQUARED 0.944, PBLUC_HILL_SLOPE 17.4, PBLUC_R_SQUARED 0.281, read-out: LUCIFERASE INFECTION ASSAY - IC50) came to 8.38 µM.

On to `COc1ccccc1-c1nc2ccc(NC(=O)c3cc(C(C)(C)C)nn3C)cn2n1`, for which the IC90 was more than 10 µM. The IC50 under setting [1] was more than 10 µM.

In the case of `CC(C)c1ccc(-c2csc(NC(=O)c3cccc(NC(=O)C4CCCO4)c3)n2)cc1` (stereo not drawn), the IC90 was more than 10 µM. The 50% inhibitory concentration (IC50) (PBLUC_HILL_SLOPE 15.4, PBLUC_R_SQUARED 0.296, read-out: LUCIFERASE INFECTION ASSAY - IC50) is 9.87 µM.

Take `CC(C)c1ccc(-n2c(Sc3ccc(C(F)(F)F)cc3[N+](=O)[O-])nnc2-c2ccc(C(C)(C)C)cc2)cc1`: the IC90 is more than 6.1 µM. The IC50 (PBLUC_HILL_SLOPE 12.8, PBLUC_R_SQUARED 0.26, read-out: LUCIFERASE INFECTION ASSAY - IC50) amounted to 5.26 µM.

Regarding `COc1ccc(-c2cnc3cnc(-c4ccsc4)cn23)cc1`, the IC90 was 4.82 µM. Further, where the note is “HEPG2TOX_HILL_SLOPE 3.46, HEPG2TOX_R_SQUARED 0.703, PBLUC_HILL_SLOPE 8.9, PBLUC_R_SQUARED 0.737, read-out: LUCIFERASE INFECTION ASSAY - IC50”, the IC50 was found to be 3.76 µM.

In the case of `COc1cccc(C(=O)Nc2cccc(Nc3ccc(-c4cc(OC)c(OC)c(OC)c4)cn3)c2)c1`, the IC90 is more than 6.8 µM. Moreover, under setting [1], the IC50 was more than 6.8 µM.

On to `COc1ccc(C(NC(=O)c2ccc(-n3cccc3)cc2)c2nccn2C)cc1` (stereo not drawn), for which the concentration for an effect of 90% (IC90) is more than 10 µM. For the same compound, under setting [1], the IC50 is more than 10 µM.

As for `COc1ccc(/C=C(/C(=O)c2cccs2)N2C=CC=CC2=C(C#N)C#N)cc1`, the IC90 is more than 10 µM. Moreover, the IC50 under setting [1] was more than 10 µM.

`O=C(/C=C/c1cccnc1)c1ccc(S(=O)(=O)N2CCCC2)cc1`: the IC90 came to 7.23 µM. Moreover, under “HEPG2TOX_HILL_SLOPE 1.78, HEPG2TOX_R_SQUARED 0.606, PBLUC_HILL_SLOPE 4.03, PBLUC_R_SQUARED 0.736, read-out: LUCIFERASE INFECTION ASSAY - IC50”, the IC50 was 4.19 µM.

With `CCCCCn1nc(C(=O)N2CCN(Cc3nc4ccccc4s3)CC2)c2ccccc2c1=O`, the 90% effect concentration (IC90) is more than 10 µM. Further, the concentration for half-maximal inhibition (IC50) under setting [1] was more than 10 µM.

Consider `O=C(Nc1ccc(Nc2ccccc2)cc1)c1[nH]nc2ccccc12`, for which the 90% effect concentration (IC90) is more than 10 µM. For the setting “PBLUC_HILL_SLOPE 16, PBLUC_R_SQUARED 0.594, read-out: LUCIFERASE INFECTION ASSAY - IC50”, the half-maximal inhibitory concentration (IC50) was determined as 8.92 µM.

In the case of `CC(C)c1ccc(-n2c(SCc3c(F)cccc3Cl)nnc2-c2ccc(C(C)(C)C)cc2)cc1`, the concentration for an effect of 90% (IC90) was 5.28 µM. Besides, the IC50 (HEPG2TOX_HILL_SLOPE 7.75, HEPG2TOX_R_SQUARED 0.388, PBLUC_HILL_SLOPE 5.31, PBLUC_R_SQUARED 0.644, read-out: LUCIFERASE INFECTION ASSAY - IC50) is 3.49 µM.

Take `O=C(Nc1ccc(OC(F)(F)F)cc1)N1CCc2nc(Nc3cc(Cl)cc(Cl)c3)ncc2C1`: the 90% effect concentration (IC90) is more than 6.62 µM. The IC50 under setting [1] was more than 6.62 µM.

On to `CC(C)c1ccc2c(ccc[n+]2C)c1`, for which the IC90 is more than 10.5 µM. For the same compound, where the note is “PBLUC_HILL_SLOPE 4.53, PBLUC_R_SQUARED 0.451, read-out: LUCIFERASE INFECTION ASSAY - IC50”, the IC50 was 8.36 µM.

Regarding `Cc1c(Cl)cccc1N=C(NS(=O)(=O)c1cccs1)c1ccccc1`, the concentration for an effect of 90% (IC90) was more than 10 µM. Further, the IC50 under setting [1] is more than 10 µM.

In the case of `CC(C)(C)c1cc(C(=O)NNC(=O)c2ccc(C(F)(F)F)cc2)n(Cc2ccccc2)n1`, the IC90 was more than 7.42 µM. Also, the IC50 under setting [1] was more than 7.42 µM.

On to `O=C(Nc1cccc(Cl)c1)n1nccc1-c1ccc(-c2cccs2)s1`, for which the concentration for an effect of 90% (IC90) was more than 8.55 µM. Moreover, under setting [1], the half-maximal inhibitory concentration (IC50) was more than 8.55 µM.

`COc1ccc(C2CC(=O)c3cnn(-c4nc(C)cc(C)n4)c3C2)cc1` (stereo not drawn): the IC90 turned out to be 4.91 µM. The IC50 (PBLUC_HILL_SLOPE 4.21, PBLUC_R_SQUARED 0.368, read-out: LUCIFERASE INFECTION ASSAY - IC50) came out at 2.91 µM.

Consider `CCc1nn2c(NCc3ccccn3)cc(C)nc2c1-c1ccccc1`, for which the IC90 is more than 9.61 µM. For the same compound, the IC50 (PBLUC_HILL_SLOPE 4, PBLUC_R_SQUARED 0.354, read-out: LUCIFERASE INFECTION ASSAY - IC50) came out at 6.15 µM.

Take `Cc1cc(/C=C/C(=O)Nc2nccs2)c(C)n1-c1ccccc1`: the IC90 came to 3.27 µM. The IC50 (PBLUC_HILL_SLOPE 1.4, PBLUC_R_SQUARED 0.69, read-out: LUCIFERASE INFECTION ASSAY - IC50) turned out to be 0.681 µM.

With `Cn1ccc2cc(-c3cn4c(-c5ccc(Cl)cc5)cnc4cn3)ccc21`, the 90% effect concentration (IC90) was 0.448 µM. In addition, the IC50 under setting [1] amounted to 0.247 µM.

In the case of `COC(=O)C1=C(C)N(c2cccc(C(F)(F)F)c2)C(=S)NC1c1ccc(O)c(OC)c1` (stereo not drawn), the 90% effect concentration (IC90) was determined as 1.57 µM. The half-inhibitory concentration (IC50) (HEPG2TOX_HILL_SLOPE 1.61, 1.73, HEPG2TOX_R_SQUARED 0.946, 0.571, PBLUC_HILL_SLOPE 8.66, 0.516, PBLUC_R_SQUARED 0.631, 0.614, read-out: LUCIFERASE INFECTION ASSAY - IC50) was determined as 0.906 µM.

In the case of `FC(F)Oc1ccc(NC(=S)NNC(=S)Nc2ccc(Cl)cc2)cc1`, the IC90 came out at 4.51 µM. The half-maximal inhibitory concentration (IC50) (HEPG2TOX_HILL_SLOPE 2.66, HEPG2TOX_R_SQUARED 0.926, PBLUC_HILL_SLOPE 1.61, PBLUC_R_SQUARED 0.703, read-out: LUCIFERASE INFECTION ASSAY - IC50) is 1.16 µM.

In the case of `COC(=O)c1c(NC(=O)c2cccnc2)c2cc(NCc3ccco3)cnc2n1Cc1ccccc1`, the 90% effect concentration (IC90) is more than 6.85 µM. For the setting “HEPG2TOX_HILL_SLOPE 11.5, HEPG2TOX_R_SQUARED 0.854, PBLUC_HILL_SLOPE 4.03, PBLUC_R_SQUARED 0.534, read-out: LUCIFERASE INFECTION ASSAY - IC50”, the IC50 was 4.51 µM.

As to `COc1ccc(F)cc1-c1csc(-c2ccc(NC(=O)c3cccs3)cc2)n1`, the IC90 was more than 10 µM. For the same compound, the IC50 under setting [1] is more than 10 µM.

In the case of `c1ccc(Oc2ccccc2-c2cn3c(-c4ccncc4)cnc3cn2)cc1`, the concentration for an effect of 90% (IC90) came out at 8.82 µM. Also, the IC50 (PBLUC_HILL_SLOPE 3.74, PBLUC_R_SQUARED 0.758, read-out: LUCIFERASE INFECTION ASSAY - IC50) was found to be 4.9 µM.

For `c1cncc(-c2nc(NCc3ccnc(N4CCCC4)c3)c3ccccc3n2)c1`, the IC90 was more than 10 µM. The IC50 (HEPG2TOX_HILL_SLOPE 5.98, HEPG2TOX_R_SQUARED 0.222, PBLUC_HILL_SLOPE 14.9, PBLUC_R_SQUARED 0.594, read-out: LUCIFERASE INFECTION ASSAY - IC50) stood at 9.31 µM.

Consider `CN(C)CCNC(=O)c1cccc(-c2cnc3ccc(-c4cccc(F)c4)nn23)c1`, for which the 90% effect concentration (IC90) is 9.29 µM. Further, the IC50 (PBLUC_HILL_SLOPE 5.28, PBLUC_R_SQUARED 0.0552, read-out: LUCIFERASE INFECTION ASSAY - IC50) amounted to 6.13 µM.

In the case of `Cc1cccc(C2CC(=O)c3cnn(-c4nc(C)cc(C)n4)c3C2)c1` (stereo not drawn), the concentration for an effect of 90% (IC90) stood at 1.39 µM. In addition, where the note is “HEPG2TOX_HILL_SLOPE 1.23, HEPG2TOX_R_SQUARED 0.907, PBLUC_HILL_SLOPE 2.7, PBLUC_R_SQUARED 0.565, read-out: LUCIFERASE INFECTION ASSAY - IC50”, the IC50 turned out to be 0.617 µM.

Turning to `CCOc1cccc(-c2cn3c(-c4ccc(C(=O)N(C)C)cc4)cnc3cn2)c1`, the IC90 worked out at 3.39 µM. The IC50 (PBLUC_HILL_SLOPE 14.8, PBLUC_R_SQUARED 0.204, read-out: LUCIFERASE INFECTION ASSAY - IC50) came to 2.92 µM.

`O=C(Sc1ccc(Cl)cc1Cl)c1cccnc1SCCS(=O)(=O)c1ccc(C(F)(F)F)cn1`: the IC90 is more than 5.96 µM. Besides, where the note is “FFLUC_HILL_SLOPE 1.65, FFLUC_R_SQUARED 0.565, PBLUC_HILL_SLOPE 0.597, PBLUC_R_SQUARED 0.0951, read-out: LUCIFERASE INFECTION ASSAY - IC50”, the IC50 was more than 5.96 µM.

`Cc1cc(N(C)Cc2ccccc2Br)nc(N)n1`: the concentration for an effect of 90% (IC90) came to 2.29 µM. The IC50 (HEPG2TOX_HILL_SLOPE 1.99, HEPG2TOX_R_SQUARED 0.929, PBLUC_HILL_SLOPE 3.52, PBLUC_R_SQUARED 0.797, read-out: LUCIFERASE INFECTION ASSAY - IC50) worked out at 1.23 µM.

Regarding `CCOC(=O)/C=c1\s/c(=C\c2ccc(Cl)cc2)c(=O)n1CC(=O)c1ccc(Cl)cc1`, the IC90 was more than 10 µM. Also, the 50% inhibitory concentration (IC50) under setting [1] was more than 10 µM.

For the compound `CC(C)Cn1c(N)c(C(=O)COC(=O)c2c3c(nc4ccccc24)CCCCC3)c(=O)n(C)c1=O`, the 90% effect concentration (IC90) was determined as 1.27 µM. Besides, the IC50 (HEPG2TOX_HILL_SLOPE 9.18, HEPG2TOX_R_SQUARED 0.068, PBLUC_HILL_SLOPE 16.7, PBLUC_R_SQUARED 0.609, read-out: LUCIFERASE INFECTION ASSAY - IC50) is 1.11 µM.
